Literature values as cited in US5786344A, “Camptothecin drug combinations and methods with reduced side effects” (priority 1995, dated 1998).
“Also recorded” adds a separate entry of the source. Counter-ions that a name gives are not always drawn. Like-named read-outs stand apart in the source and are kept apart here.

Assays:
p-glycoprotein = conditions: cited from earlier work; for inhibition of photoaffinity labeling of p-glycoprotein: photolabeling
[1] = cited from earlier work; for plasma concentration: single dose 600 mg
[2] = tested on: multidrug resistant (MDR) cells; conditions: cited from earlier work
[3] = cited from earlier work
[4] = plasma/serum/terminal or elimination half-life
[5] = listed as Trifluoperazine, dihydrochloride

SMILES: C=C[C@@]1(C)CC(=O)[C@@H]2[C@@]3(C)CCCC(C)(C)[C@@H]3[C@H](O)[C@H](OC(C)=O)[C@@]2(C)O1 [1,9-dideoxyforskolina]
- inhibition of / interaction with p-glycoprotein (p-glycoprotein): p-glycoprotein inhibitors

SMILES: CCN1CCN(C(=O)N[C@@H](C(=O)N[C@@H]2C(=O)N3C(C(=O)O)=C(CSc4nnnn4C)CS[C@H]23)c2ccc(O)cc2)C(=O)C1=O [Cefoperazone]
- peak plasma concentration ([1]; human, in vivo, im): 80 to 120 µg/mL
- peak plasma concentration ([1]; human, in vivo, iv): 250 to 357 µg/mL
- biliary secretion ([1]; human, in vivo): 70%
- urinary excretion ([1]; human, in vivo): 30%
- oral absorption ([1]; oral): absorbed poorly

SMILES: CCN(CC)CCCC(C)Nc1ccnc2cc(Cl)ccc12 (centres unmarked) [Chloroquine phosphate, 1,4-Pentanediamine, N^4-(7-chloro-4-quinolinyl)-N^1, N^1-diethyl-, phosphate (1:2)]
- oral absorption ([1]; oral): absorbed almost completely

SMILES: CCN(CC)CCCC(C)Nc1ccnc2cc(Cl)ccc12 (centres unmarked) [Chloroquine]
- reversal of drug resistance [2]: partially reverses drug resistance

SMILES: CN(C)CCCN1c2ccccc2Sc2ccc(Cl)cc21 [Chlorpromazine hydrochloride, 10H-Phenothiazine-10-propanamine, 2-chloro-N,N-dimethyl-, mono hydrochloride]
- volume of distribution ([1]; human, in vivo, im): 21.8 L/kg
- bioavailability / dose reaching the systemic circulation ([1]; human, in vivo, po): 32%
- volume of distribution ([1]; human, in vivo, po): 80.6 L/kg

SMILES: O=C1CN=C(c2ccccc2Cl)c2cc([N+](=O)[O-])ccc2N1 [Clonazepam, 2H-1,4-Benzodiazepin-2-one, 5-(2-chlorophenyl)-1,3-dihydro-7-nitro-]
- therapeutic plasma levels ([1]; human, in vivo): 20 to 80 ng/mL

SMILES: OCCN(CCO)c1nc(N2CCCCC2)c2nc(N(CCO)CCO)nc(N3CCCCC3)c2n1 [Dipyridamole, [2,6-Bis(diethanolamino)-4,9-dipiperidinopyrimido-(5,4-d)pyrimidine]
- clinical toxicity ([3]; human, in vivo): quite nontoxic

SMILES: CCCCCCCCCC(=O)OCCN1CCN(CCCN2c3ccccc3Sc3ccc(C(F)(F)F)cc32)CC1 [Fluphenazine decanoate]
- duration of action ([3]; intramuscular or subcutaneous): about 4 wk

SMILES: CCCCCCC(=O)OCCN1CCN(CCCN2c3ccccc3Sc3ccc(C(F)(F)F)cc32)CC1 [Fluphenazine enanthate]
- duration of action ([3]; intramuscular or subcutaneous, listed as enanthate salt): 2 wk

SMILES: OCCN1CCN(CCCN2c3ccccc3Sc3ccc(C(F)(F)F)cc32)CC1 [Fluphenazine hydrochloride]
- oral absorption ([1]; oral): absorbed rapidly
- onset of action ([3]; human, in vivo): ≤ 1 h
- potency relative to chlorpromazine / other phenothiazines ([3]; human, in vivo): more potent
- duration of action ([3]; oral or intramuscular): 6 h

SMILES: Cc1ccc(C)c(OCCCC(C)(C)C(=O)O)c1 [Gemfibrozil]
- plasma concentration ([1]; after 2 hours): about 15 μg/ml
- plasma concentration ([1]; after 9 hours): ~5000 ng/mL
- potency relative to clofibrate ([3]; human, in vivo): more potent than clofibrate

SMILES: CCOC(=O)N(C)[C@@H]1C[C@H]2O[C@@](C)([C@@H]1OC)n1c3ccccc3c3c4c(c5c6ccccc6n2c5c31)C(=O)NC4=O [NA-382, N-ethoxycarbonyl-7-oxo-staurosporine]
- inhibition of / interaction with p-glycoprotein (p-glycoprotein): inhibiting drug binding to p-glycoprotein

SMILES: CCC1(c2ccccc2)C(=O)NC(=O)NC1=O [Phenobarbital, 2,4,6(1H,3H,5H)-Pyrimidinetrione, 5-ethyl-5-phenyl-]
- oral absorption ([1]; % of oral dose): Approximately 80%
- therapeutic plasma levels ([1]; human, in vivo): 10000 to 30000 ng/mL
- time to peak plasma level ([1]; human, plasma): 16 to 18 h

SMILES: O=C1NC(=O)C(c2ccccc2)(c2ccccc2)N1 [Phenytoin, 2,4-Imidazolidinedione, 5,5-diphenyl-]
- lethal plasma levels ([1]; human, in vivo): ~100 µg/mL

SMILES: C=CC1CN2CCC1CC2C(O)c1ccnc2ccc(OC)cc12 (centres unmarked) [Quinidine polygalacturonate]
- gastrointestinal side effects ([3]; human, in vivo): lesser incidence and severity of gastrointestinal side effects

SMILES: CO[C@H]1/C=C/O[C@@]2(C)Oc3c(C)c(O)c4c(O)c(c(/C=N/N5CCN(C)CC5)c(O)c4c3C2=O)NC(=O)/C(C)=C\C=C\[C@H](C)[C@H](O)[C@@H](C)[C@@H](O)[C@@H](C)[C@H](OC(C)=O)[C@@H]1C [Rifampin, Rifamycin, 3-[[(4-methyl-1-piperazinyl)imino]methyl]-]
- duration of effective levels ([1]; human, in vivo): 8 to 10 h

SMILES: CC(=O)O[C@@]12CO[C@@H]1C[C@H](O)[C@@]1(C)C(=O)[C@H](O)C3=C(C)[C@@H](OC(=O)[C@H](O)[C@@H](NC(=O)OC(C)(C)C)c4ccccc4)C[C@@](O)([C@@H](OC(=O)c4ccccc4)[C@H]21)C3(C)C [Taxotere]
- inhibition of / interaction with p-glycoprotein (p-glycoprotein): p-glycoprotein inhibitors

SMILES: C[C@@H]1C[C@H]2[C@@H]3CCC4=CC(=O)C=C[C@]4(C)C3=CC[C@]2(C)[C@H]1C(=O)CN1CCN(c2cc(N3CCCC3)nc(N3CCCC3)n2)CC1 [Tirilazad]
- sensitivity of nonresistant parental cells ([2]; nonresistant parental cells): does not change the sensitivity of nonresistant parental cells
- sensitization of resistant cells to killing by vinblastine ([2]; resistant cells): 66 fold
- inhibition of / interaction with p-glycoprotein (p-glycoprotein): potent inhibitors
- inhibition of photoaffinity labeling of p-glycoprotein (p-glycoprotein): more effectively than does verapamil

SMILES: CN(C)CCCN1c2ccccc2Sc2ccc(C(F)(F)F)cc21 [Triflupromazine hydrochloride, 1OH-Phenothiazine-10-propanamine, N,N-dimethyl-2-(trifluoromethyl)-monohydrochloride]
- potency relative to chlorpromazine / other phenothiazines ([3]; human, in vivo): somewhat more potent

SMILES: CS(=O)(=O)O.C[C@]12C=CC(=O)C=C1CC[C@@H]1C2=CC[C@]2(C)[C@@H](C(=O)CN3CCN(c4cc(N5CCCC5)nc(N5CCCC5)n4)CC3)CC[C@@H]12 [U-74389F]
- inhibition of / interaction with p-glycoprotein (p-glycoprotein): potent inhibitors

SMILES: COc1ccc(CCN(C)CCCC(C#N)(c2ccc(OC)c(OC)c2)C(C)C)cc1OC (stereo not drawn) [Verapamil hydrochloride, benzeneacetonitrile, α-[3-[[2-(3,4-dimethoxyphenyl)ethyl]-methylamino]propyl]-3,4-dime thoxy-a-(l-methylethyl)-, hydrochloride]
- excreted unchanged (urine) ([1]; % of dose): less than 5%
- fecal excretion ([1]; % of dose): 16%
- oral absorption ([1]; % of oral dose): more than 90%

SMILES: CC(C)(Oc1ccc(CCNC(=O)c2ccc(Cl)cc2)cc1)C(=O)O [bezafibrate]
- potency relative to clofibrate ([3]; human, in vivo): more potent than clofibrate

SMILES: COc1ccc2cc1Oc1ccc(cc1)C[C@H]1c3c(cc4c(c3Oc3cc5c(cc3OC)CCN(C)[C@@H]5C2)OCO4)CCN1C [cepharanthine]
- inhibition of photoaffinity labeling of p-glycoprotein (p-glycoprotein): showed inhibition

SMILES: CN(C)CCCN1c2ccccc2Sc2ccc(Cl)cc21 [chlorpromazine]
- reversal of drug resistance [2]: effectively reverse multidrug resistance
- inhibition of photoaffinity labeling of p-glycoprotein (p-glycoprotein): poor inhibitors

SMILES: CC(C)(Oc1ccc(C2CC2(Cl)Cl)cc1)C(=O)O (centres unmarked) [ciprofibrate]
- potency relative to clofibrate ([3]; human, in vivo): more potent than clofibrate

SMILES: OCCN1CCN(CC/C=C2/c3ccccc3Sc3ccc(C(F)(F)F)cc32)CC1 [cis-flupenthixol]
- reversal of drug resistance [2]: reversed cellular resistance to various drugs only in p-glycoprotein expressing cell lines

SMILES: C=C1[C@@H](C)[C@H]2[C@H](Cc3ccccc3)NC(=O)[C@]23OC(=O)/C=C/[C@H](O)CCC[C@@H](C)C/C=C/[C@H]3[C@@H]1O [cytochalasin B]
- inhibition of / interaction with p-glycoprotein (p-glycoprotein): inhibiting p-glycoprotein

SMILES: COc1cccc2c1C(=O)c1c(O)c3c(c(O)c1C2=O)C[C@@](O)(C(C)O)C[C@@H]3O[C@H]1C[C@H](N)[C@H](O)[C@H](C)O1 (some centres unmarked) [daunorubicinol]
- half-life [1, 4]: about 27 hr

SMILES: COc1cccc2c1C(=O)c1c(O)c3c(c(O)c1C2=O)C[C@@](O)(C(=O)CO)C[C@@H]3O[C@H]1C[C@H](N)[C@H](O)[C@H](C)O1 [doxorubicin, 5,12-Naphthacenedione, (8s-cis)-10-[(3-amino-2,3,6-trideoxy-α-L-lyxo-hexopyranosyl)oxy)-7,8,9,10-tetrahydro-6,8,11-trihydroxy-8-(hydroxyacetyl)-1-methoxy-hydrochloride]
- oral absorption ([1]; human, in vivo, po): absorbed poorly
- half-life [1, 4]: about 30 hr
- inhibition of / interaction with p-glycoprotein (p-glycoprotein): interacted with p-glycoprotein

SMILES: COc1cc([C@@H]2c3cc4c(cc3[C@@H](O[C@@H]3O[C@@H]5CO[C@@H](C)O[C@H]5[C@H](O)[C@H]3O)[C@H]3COC(=O)[C@H]23)OCO4)cc(OC)c1O [etoposide]
- peak plasma concentration ([1]; human, in vivo, iv): 30 µg/mL
- oral absorption ([1]; human, in vivo, po): about 50%
- concentration in CSF relative to plasma ([1]; human, in vivo): 1-10%
- excreted unchanged (urine) ([1]; human, in vivo): Approximately 40%
- half-life ([1]; human, in vivo): about 8 hours
- inhibition of / interaction with p-glycoprotein (p-glycoprotein): interacted with p-glycoprotein

SMILES: CC(C)OC(=O)C(C)(C)Oc1ccc(C(=O)c2ccc(Cl)cc2)cc1 [fenofibrate]
- potency relative to clofibrate ([3]; human, in vivo): more potent than clofibrate

SMILES: OCCN1CCN(CCCN2c3ccccc3Sc3ccc(C(F)(F)F)cc32)CC1 [fluphenazine]
- reversal of drug resistance [2]: reversed cellular resistance to various drugs only in p-glycoprotein expressing cell lines

SMILES: CC(=O)[C@H]1CC[C@H]2[C@@H]3CC=C4C[C@@H](O)CC[C@]4(C)[C@H]3CC[C@]12C [pregnenolone]
- inhibition of / interaction with p-glycoprotein (p-glycoprotein): inhibited the transporting activity of p-glycoprotein

SMILES: CC(=O)[C@H]1CC[C@H]2[C@@H]3CCC4=CC(=O)CC[C@]4(C)[C@H]3CC[C@]12C [progesterone]
- inhibition of / interaction with p-glycoprotein (p-glycoprotein): inhibited the transporting activity of p-glycoprotein; also recorded: inhibits their drug efflux

SMILES: COc1ccc(C[C@H](N)C(=O)N[C@H]2[C@@H](O)[C@H](n3cnc4c(N(C)C)ncnc43)O[C@@H]2CO)cc1 [puromycin]
- inhibition of / interaction with p-glycoprotein (p-glycoprotein): interacted with p-glycoprotein

SMILES: CN1CCN(CCCN2c3ccccc3Sc3ccc(C(F)(F)F)cc32)CC1 [trifluoperazine, 1OH-Phenothiazine, 10-[3-(4-methyl-1-piperazinyl)propyl]-2-(trifluoromethyl)-, dihydrochloride]
- reversal of drug resistance ([2]; dihydrochloride): effectively reverse multidrug resistance
- reversal of drug resistance [2, 5]: reverses multidrug resistance
- inhibition of photoaffinity labeling of p-glycoprotein (p-glycoprotein; dihydrochloride): poor inhibitors
- inhibition of photoaffinity labeling of p-glycoprotein (p-glycoprotein; [5]): without inhibiting photoaffinity labeling
